Test system: Respiratory Syncytial Virus
Assay: microbe, parasite or virus in culture
Type: cell-based
Settings: for EC50: human respiratory syncytial virus, 168 h
Text: In vitro Screening for Activity against Respiratory Syncytial Virus.
The percent protection against cytopathology caused by viruses (antiviral activity or EC50) achieved by tested compounds and their cytotoxicity (CC50) are both calculated from dose-response curves. The selectivity of the antiviral effect is represented by the selectivity index (SI), calculated by dividing the CC50 (cytotoxic dose for 50% of the cells) by the EC50 (antiviral activity for 50% of the cells).
Automated tetrazolium-based colorimetric assays were used for determination of EC50 and CC50 of test compounds. Flat-bottom, 96-well plastic microtiter trays were filled with 180 μl of Eagle's Basal Medium, supplemented with 5% FCS (0% for FLU) and 20 mM Hepes buffer. Subsequently, stock solutions (7.8× final test concentration) of compounds were added in 45 μl volumes to a series of triplicate wells so as to allow simultaneous evaluation of their effects on virus- and mock-infected cells. Five five-fold dilutions were made directly in the microtiter trays using a robot system. Untreated virus controls, and HeLa cell controls were included in each test. Approximately 100 TCID50 of Respiratory Syncytial Virus was added to two of the three rows in a volume of 50 μl. The same volume of medium was added to the third row to measure the cytotoxicity of the compounds at the same concentrations as those used to measure the antiviral activity. After two hours of incubation, a suspension (4×10^5 cells/ml) of HeLa cells was added to all wells in a volume of 50 μl. The cultures were incubated at 37° C. in a 5% CO2 atmosphere. Seven days after infection the cytotoxicity and the antiviral activity was examined spectrophotometrically. To each well of the microtiter tray, 25 μl of a solution of MTT (3-(4,5-dimethylthiazol-2-yl)-2,5-diphenyltetrazolium bromide) was added. The trays were further incubated at 37° C. for 2 hours, after which the medium was removed from each cup. Solubilization of the formazan crystals was achieved by adding 100 μl 2-propanol. Complete dissolution of the formazan crystals were obtained after the trays have been placed on a plate shaker for 10 min. Finally, the absorbances were read in an eight-channel computer-controlled photometer (Multiskan MCC, Flow Laboratories) at two wavelengths (540 and 690 nm). The absorbance measured at 690 nm was automatically subtracted from the absorbance at 540 nm, so as to eliminate the effects of non-specific absorption.

[1] = RSV-infected HeLa cells, MTT readout seven days after infection, −log of EC50 in molar units
[2] = pEC50 (−log of EC50 when expressed in molar units), protection against RSV cytopathology

SMILES: Cc1ccc(O)c(Cn2c(NCCCN3CCOCC3)nc3ccc(CN(CCO)c4ccccc4)cc32)n1 [Compound 97]
- Activity [1]: 8.5

SMILES: C#Cc1cccc(N(CCO)Cc2ccc3nc(NCCCN4CCOCC4)n(Cc4nc(C)ccc4O)c3c2)c1 [Compound 99]
- Activity [1]: 8.5

SMILES: Cc1cccc(N(CCN(C)C)Cc2ccc3nc(NCCCN4CCOCC4)n(Cc4nc(C)ccc4O)c3c2)c1 [Compound 100]
- Activity [1]: 8.4

SMILES: Cc1ccc(O)c(Cn2c(NCCCN3CCOCC3)nc3ccc(CN(CC(N)=O)c4ccccc4CCO)cc32)n1 [Compound 101]
- Activity [1]: 8.3

SMILES: Cc1ccc(O)c(Cn2c(NCCCN3CCOCC3)nc3ccc(CN(CCN4CCOCC4)c4ccccc4CCO)cc32)n1 [Compound 103]
- Activity [1]: 8.2

SMILES: Cc1ccc(O)c(Cn2c(NCCCN3CCOCC3)nc3ccc(CN(c4ccccc4)c4ccc(O)cc4)cc32)n1 [Compound 106]
- Activity [1]: 8.1

SMILES: Cc1ccc(O)c(Cn2c(NCCCN3CCOCC3)nc3ccc(CN(CCO)c4ccccc4CCO)cc32)n1 [Compound 107]
- Activity [1]: 8.1

SMILES: Cc1ccc(O)c(Cn2c(NCCCN3CCOCC3)nc3ccc(CNc4ccccc4CN)cc32)n1 [Compound 108]
- Activity [1]: 8

SMILES: Cc1ccc(O)c(Cn2c(NCCCN3CCOCC3)nc3ccc(CN(c4ccccc4)c4cccc(O)c4)cc32)n1 [Compound 109]
- Activity [1]: 7.9

SMILES: Cc1ccc(O)c(Cn2c(NCCCN3CCOCC3)nc3ccc(CN(CCO)c4ccccc4C)cc32)n1 [Compound 110]
- Activity [1]: 7.8

SMILES: Cc1cccc(NCc2ccc3nc(NC4CCN(CCN5CCOCC5)CC4)n(Cc4nc(C)ccc4O)c3c2)c1 [Compound 164]
- Activity [1]: 7.5

SMILES: Cc1ccc(O)c(Cn2c(NC3CCN(CCN4CCOCC4)CC3)nc3c(C)cccc32)n1 [Compound 166]
- Activity [1]: 6.8

SMILES: Cc1ccc(O)c(Cn2c(NC3CCN(CCN4CCOCC4)CC3)nc3cc(/C=C/c4ccccc4)ccc32)n1 [Compound 167]
- Activity [1]: 6.7

SMILES: Cc1ccc(O)c(Cn2c(NC3CCN(CCN4CCOCC4)CC3)nc3ccc(CO)cc32)n1 [Compound 168]
- Activity [1]: 6.5

SMILES: Cc1cc(C)cc(NCc2ccc3c(c2)nc(NCCCN2CCCOCC2)n3Cc2nc(C)ccc2O)c1 [Compound 174, 2-[5-[(3,5-Dimethyl-phenylamino)-methyl]-2-(3-[1,4]oxazepan-4-yl-propylamino)-benzoimidazol-1-ylmethyl]-6-methyl-pyridin-3-ol]
- EC50 [1]: 2.51 nM

SMILES: Cc1ccc(O)c(Cn2c(NCCCN3C[C@@H](C)O[C@@H](C)C3)nc3ccc(CO)cc32)n1 [Compound 175]
- Activity [1]: 6.2

SMILES: Cc1ccc(O)c(Cn2c(NCCCN3CC(C)OC(C)C3)nc3ccc(CO)cc32)n1 (centres unmarked) [Compound 177]
- Activity [1]: 5.7

SMILES: Cc1cc(C)cc(N(CCCC(N)=O)Cc2ccc3nc(NCC(O)CN4CCOCC4)n(Cc4nc(C)ccc4O)c3c2)c1.Cl (centres unmarked) [Compound 178, 4-{(3,5-Dimethyl-phenyl)-[3-(3-hydroxy-6-methyl-pyridin-2-ylmethyl)-2-(2-hydroxy-3-morpholin-4-yl-propylamino)-3H-benzoimidazol-5-ylmethyl]-amino}-butyramide, HCl salt]
- Activity [1]: 9.6

SMILES: Cc1cc(C)cc(NCc2ccc3nc(NCCCN4CCOC(CCO)C4)n(Cc4nc(C)ccc4O)c3c2)c1 (centres unmarked) [Compound 181, 2-(6-[(3,5-Dimethyl-phenylamino)-methyl]-2-{3-[2-(2-hydroxy-ethyl)-morpholin-4-yl]-propylamino}-benzoimidazol-1-ylmethyl)-6-methyl-pyridin-3-ol]
- EC50 [1]: 6.31 nM

SMILES: Cc1ccc(O)c(Cn2c(NCCCN3CCSCC3)nc3ccc(CO)cc32)n1 [Compound 182]
- Activity [1]: 7.1

SMILES: COc1ccc(C)nc1Cn1c(NCCCN2CCOCC2)nc2ccc(CN(CCCC(N)=O)c3cc(C)cc(C)c3)cc21 [Compound 210, -{(3,5-Dimethyl-phenyl)-[3-(3-methoxy-6-methyl-pyridin-2-ylmethyl)-2-(3-morpholin-4-yl-propylamino)-3H-benzoimidazol-5-ylmethyl]-amino}-butyramide]
- Activity [2]: 9

SMILES: OCCCc1ccc(C(F)(F)F)cc1NCc1ccc2nc(NCCCN3CCOCC3)n(Cc3ncccc3O)c2c1 [Compound 216]
- Activity [2]: 8.7

SMILES: OCCCc1ccc(C(F)(F)F)cc1NCc1ccc2nc(NCCCN3CCOCC3)n(Cc3cc(Br)ccc3O)c2c1 [Compound 217]
- Activity [2]: 8.7

SMILES: COc1ccc(C)nc1Cn1c(NCCCN2CCOCC2)nc2ccc(CNc3cc(C)ccc3CCO)cc21 [Compound 220]
- Activity [2]: 8.6

SMILES: Cn1cnc2c(Cn3c(NCCCN4CCOCC4)nc4ccc(CNc5ccccc5CCCO)cc43)cccc21 [Compound 224]
- Activity [2]: 8.5

SMILES: Cc1ccc(CCCO)c(NCc2ccc3nc(NCCCN4CCOCC4)n(Cc4ccccc4O)c3c2)c1 [Compound 227]
- Activity [2]: 8.5

SMILES: Cc1ccc(CCO)c(NCc2ccc3nc(NCCCN4CCOCC4)n(Cc4cccc5c4ncn5C)c3c2)c1 [Compound 229]
- Activity [2]: 8.4

SMILES: Cn1cnc2c(Cn3c(NCCCN4CCOCC4)nc4ccc(CNc5cc(Br)ccc5CCCO)cc43)cccc21 [Compound 232]
- Activity [2]: 8.4

SMILES: C#Cc1ccc(CCO)c(NCc2ccc3nc(NCCCN4CCOCC4)n(Cc4cccc5cccnc45)c3c2)c1 [Compound 235]
- Activity [2]: 8.3

SMILES: C#Cc1ccc(CCO)c(NCc2ccc3nc(NCCCN4CCOCC4)n(Cc4cccc5c4ncn5C)c3c2)c1 [Compound 236]
- Activity [2]: 8.1

SMILES: Cn1cnc2c(Cn3c(NCCCN4CCOCC4)nc4ccc(CNc5ccccc5CCO)cc43)cccc21 [Compound 237]
- Activity [2]: 7.9

SMILES: Cn1cnc2c(Cn3c(NCCCN4CCOCC4)nc4ccc(CNc5ccccc5CCC(N)=O)cc43)cccc21 [Compound 238]
- Activity [2]: 7.9

SMILES: COc1ccc(C)nc1Cn1c(NCCCN2CCOCC2)nc2ccc(CNc3ccccc3CCCO)cc21 [Compound 239]
- Activity [2]: 7.9

SMILES: COc1ccc(C)nc1Cn1c(NCCCN2CCOCC2)nc2ccc(CN(CCO)c3cc(C)cc(C)c3)cc21 [Compound 240]
- Activity [2]: 7.9

SMILES: Cn1cnc2c(Cn3c(NCCCN4CCOCC4)nc4ccc(CNc5cc(C(F)(F)F)ccc5CCCO)cc43)cccc21 [Compound 241]
- Activity [2]: 7.9

SMILES: Cn1cnc2c(Cn3c(NCCCN4CCOCC4)nc4ccc(CNc5ccccc5CCN5CCOCC5)cc43)cccc21 [Compound 242]
- Activity [2]: 7.8

SMILES: Cc1nc(C)c(Cn2c(NCCCN3CCOCC3)nc3ccc(CNc4ccccc4CCCO)cc32)nc1C [Compound 243]
- Activity [2]: 7.8

SMILES: Cc1ccc(CCCO)c(NCc2ccc3nc(NCCCN4CCOCC4)n(Cc4cccc(C)n4)c3c2)c1 [Compound 274]
- Activity [2]: 7.2

SMILES: Cc1ccc(CCO)c(NCc2ccc3nc(NCCCN4CCOCC4)n(Cc4cccc(C)n4)c3c2)c1 [Compound 275]
- Activity [2]: 7.2

SMILES: Cc1ccc(C)c(NCc2ccc3c(c2)nc(NCCCN2CCOCC2)n3C2CCCc3nc(C)c(C)nc32)c1 (centres unmarked) [Compound 276]
- Activity [2]: 7.2

SMILES: Cc1cccc(NCc2ccc3nc(NCCCN4CCOCC4)n(Cc4cccc5c4ncn5C)c3c2)c1CCO [Compound 277]
- Activity [2]: 7.1

SMILES: Cc1cc(C)cc(N(CCO)Cc2ccc3nc(NCCCN4CCOCC4)n(Cc4cccc(Br)n4)c3c2)c1.Cl [Compound 278]
- Activity [2]: 7.1

SMILES: COc1ccc(C)nc1Cn1c(NCCCN2CCOCC2)nc2ccc(CNc3ccccc3CO)cc21 [Compound 279]
- Activity [2]: 7.1

SMILES: COc1ccc(C)nc1Cn1c(NCCCN2CCOCC2)nc2ccc(CNc3ccc(C)cc3CO)cc21 [Compound 280]
- Activity [2]: 7.1

SMILES: Cc1cc(C)cc(N(CCO)Cc2ccc3nc(NCCCN4CCOCC4)n(Cc4cccc(C)n4)c3c2)c1 [Compound 281]
- Activity [2]: 7.1

SMILES: Cc1cccc(NCc2ccc3nc(NCCCN4CCOCC4)n(Cc4nc(C)c(C)nc4C)c3c2)c1CCO [Compound 282]
- Activity [2]: 7.1

SMILES: Cc1cccc(NCc2ccc3nc(NCCCN4CCOCC4)n(Cc4nc(C)c(C)nc4C)c3c2)c1 [Compound 283]
- Activity [2]: 7.1

SMILES: Cc1ccc(NCc2ccc3nc(NCCCN4CCOCC4)n(Cc4nc(C)c(C)nc4C)c3c2)c(CO)c1 [Compound 284]
- Activity [2]: 7.1

SMILES: Cc1cccc(NCc2ccc3nc(NCCCN4CCOCC4)n(Cc4nc(C)c(C)nc4C)c3c2)c1CO [Compound 285]
- Activity [2]: 7.1

SMILES: Cc1nc2c(nc1C)C(n1c(NCCCN3CCOCC3)nc3cc(CNc4ccccc4CCO)ccc31)CCC2 (centres unmarked) [Compound 286]
- Activity [2]: 7.1

SMILES: Cc1nc2c(nc1C)C(n1c(NCCCN3CCOCC3)nc3cc(CNc4ccccc4CO)ccc31)CCC2 (centres unmarked) [Compound 287]
- Activity [2]: 7.1

SMILES: Cn1cnc2c(Cn3c(NCCCN4CCOCC4)nc4ccc(CNc5ccccc5C(N)=O)cc43)cccc21 [Compound 288]
- Activity [2]: 7

SMILES: Cc1nc(C)c(Cn2c(NCCCN3CCOCC3)nc3ccc(CNc4cc(Cl)cc(Cl)c4)cc32)nc1C [Compound 289]
- Activity [2]: 7

Source: patent publication US7449463B2, “Morpholinyl containing benzimidazoles as inhibitors of respiratory syncytial virus replication” (Tibotec Pharmaceuticals Ltd., priority 2003, dated 2008)
